One test concerns SK-MEL-5. Kind of test: Cytotoxicity against human SK-MEL-5 cells. Format: functional, cell-based.
The next test concerns CCRF-CEM. Kind of test: Cytotoxicity against human CCRF-CEM cells. It is filed as functional, cell-based.
In another test the test system is HCT-116. Kind of test: Cytotoxicity against human HCT116 cells. It is filed as functional, cell-based.
The test system of another test is Escherichia coli. Kind of test: Antimicrobial activity against Escherichia coli. It is filed as functional.
A further test concerns Pseudomonas aeruginosa. Kind of test: Antimicrobial activity against Pseudomonas aeruginosa. It is filed as functional.
For a further test, the system named is MCF7. Description: Cytotoxicity against human MCF7 cells. It is filed as functional, cell-based.
For the next test, the system named is Staphylococcus aureus. Kind of test: Antimicrobial activity against Staphylococcus aureus. It is filed as functional.

In brackets after ≈: the same amount, converted by molar mass.

The IC50 is the concentration that gives 50% inhibition. High values mean a need for much substance, low ones inhibition by little substance. As usually defined, the MIC is the smallest concentration in the dilution series that meets the test's criterion for growth inhibition. Low readings indicate a more susceptible organism, high ones a less susceptible organism. As for `COC1=C(Br)[C@@H](O)[C@]2(C=C1Br)CC(C(=O)NCCC(=O)CNC(=O)C1=NO[C@]3(C=C(Br)C(OC)=C(Br)[C@@H]3O)C1)=NO2`, the 50% inhibitory concentration (IC50) turned out to be 10 µg/mL (≈ 12 µM) with SK-MEL-5, 3.5 µg/mL (≈ 4.21 µM) with CCRF-CEM, 10 µg/mL (≈ 12 µM) in the test on HCT-116 and 20 µg/mL (≈ 24 µM) in the test on MCF7. In addition, the results for the MIC in the test with Escherichia coli, against Pseudomonas aeruginosa and against Staphylococcus aureus were 10 µg/mL (≈ 12 µM), 30 µg/mL (≈ 36.1 µM) and 30 µg/mL (≈ 36.1 µM), respectively.

These data come from ChEMBL document CHEMBL1149728, “11-oxoaerothionin: a cytotoxic antitumor bromotyrosine-derived alkaloid from the Caribbean marine sponge Aplysina lacunosa” (J Nat Prod, 1992).
